Experimental findings from patent US20200405696A1, “INHIBITORS OF INDOLEAMINE 2,3-DIOXYGENASE AND/OR TRYPTOPHAN 2,3-DIOXYGENASE” (IDORSIA PHARMACEUTICALS LTD, priority 2018, published 2020) are described below.

The term IC50 denotes the concentration at which inhibition is half-maximal.

Where only a bound is given, the exact number is not on record here.

The target of test [1] is T1, Recombinant full-length human IDO1 (Homo sapiens, UniProt P14902).
T1 construct: Recombinant full-length human IDO1 with a N-terminal hexahistidine tag; hexahistidine (His6) (N); made in house; host or cells: E. coli
T1 sequence (P14902 whole entry): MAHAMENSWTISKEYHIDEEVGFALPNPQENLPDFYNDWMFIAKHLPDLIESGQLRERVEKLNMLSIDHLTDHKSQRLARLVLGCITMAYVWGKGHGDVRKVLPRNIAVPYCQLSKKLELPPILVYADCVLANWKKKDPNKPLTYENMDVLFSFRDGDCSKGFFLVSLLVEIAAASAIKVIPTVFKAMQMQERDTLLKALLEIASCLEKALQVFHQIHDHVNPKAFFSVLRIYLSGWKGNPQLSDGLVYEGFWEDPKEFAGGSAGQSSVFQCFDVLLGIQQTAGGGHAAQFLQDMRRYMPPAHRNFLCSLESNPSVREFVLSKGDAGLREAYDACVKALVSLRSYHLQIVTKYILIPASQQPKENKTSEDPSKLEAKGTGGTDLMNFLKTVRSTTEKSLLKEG
Put plainly: IDO1 enzymatic assay (NFK quantified by LCMS). In kind it is biochemical. As to conditions: 2 nM enzyme, 5 μM L-tryptophan, pH6.5, 30 minutes pre-incubation at RT; mean values when measured multiple times; read-out: hIDO activity (IC50 in nM). Put shortly: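 IC50 comes from four-parameter logistic fits of duplicate data, with NFK quantified by LCMS and normalized to L-Trp-(indole-d5). Compound (0.5 nM–10 μM) was preincubated 30 min at RT with 2 nM E. coli-expressed IDO1 before a 30 min reaction with 5 μM tryptophan in pH 6.5 buffer containing ascorbate and methylene blue.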

Test [2] concerns the target T2, Recombinant human TDO comprising amino acids 19-407 (Homo sapiens, UniProt P48775).
T2 construct: Recombinant human TDO comprising amino acids 19-407 with a N-terminal hexahistidine tag; hexahistidine (His6) (N); made in house; host or cells: E. coli
Put plainly: TDO2 enzymatic assay (NFK quantified by LCMS). In kind it is biochemical. As to conditions: 15 nM enzyme, 200 μM L-tryptophan, pH7, 30 minutes pre-incubation at RT; mean values when measured multiple times; read-out: hTDO activity (IC50 in nM). An outline of the steps:
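NFK formed over 30 min at RT from 200 μM L-tryptophan was measured by LCMS, normalized to d5-tryptophan, after compound (0.5 nM–10 μM, duplicates, 0.6% DMSO) was preincubated 30 min with 15 nM recombinant His-tagged TDO 19-407 in phosphate buffer pH 7. IC50 from four-parameter logistic fit; repeats averaged.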

T2 sequence (P48775 19-406 limits assumed): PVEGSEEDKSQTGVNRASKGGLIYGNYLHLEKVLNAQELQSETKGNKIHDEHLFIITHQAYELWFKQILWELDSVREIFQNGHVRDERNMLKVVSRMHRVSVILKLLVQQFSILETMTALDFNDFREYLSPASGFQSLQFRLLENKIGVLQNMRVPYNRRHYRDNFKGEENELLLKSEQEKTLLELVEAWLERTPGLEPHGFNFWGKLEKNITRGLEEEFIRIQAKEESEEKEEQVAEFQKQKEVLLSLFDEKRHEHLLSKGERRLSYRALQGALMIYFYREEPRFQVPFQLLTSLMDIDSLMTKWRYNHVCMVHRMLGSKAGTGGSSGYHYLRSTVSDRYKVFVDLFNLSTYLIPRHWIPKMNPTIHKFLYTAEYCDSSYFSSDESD

As to `CC(C)(O)COc1ccc(-n2cc([C@H](O)c3c(C4CC4)sc4cncn34)nn2)cc1` [Example 139a, 1-(4-{4-[(R)-(2-Cyclopropyl-imidazo[5,1-b]thiazol-3-yl)-hydroxy-methyl]-[1,2,3]triazol-1-yl}-phenoxy)-2-methyl-propan-2-ol], the IC50 in test [1] was 5.44 nM; in test [2], above 10200 nM.

As for `Oc1ccccc1Cn1cc(C(O)c2c(C3CC3)sc3cncn23)nn1` (racemic) [Example 305, rac-2-{4-[(2-Cyclopropyl-imidazo[5,1-b]thiazol-3-yl)-hydroxy-methyl]-[1,2,3]triazol-1-ylmethyl}-phenol], the IC50 in test [1] is 71.3 nM; in test [2], above 10200 nM.

In the case of `OC(c1cn(-c2ccccc2)nn1)c1c(C2CC2)sc2cncn12` (racemic) [Example 2, rac-(2-Cyclopropyl-imidazo[5,1-b]thiazol-3-yl)-(1-phenyl-1H-[1,2,3]triazol-4-yl)-methanol], the IC50 in test [1] was 28.1 nM; in test [2], above 10200 nM.

For the compound `OCCOCCOCCOc1ccc(-n2cc(C(O)c3c(C4CC4)sc4cncn34)nn2)cc1` (racemic) [Example 201, rac-2-{2-[2-(4-{4-[(2-Cyclopropyl-imidazo[5,1-b]thiazol-3-yl)-hydroxy-methyl]-[1,2,3]triazol-1-yl}-phenoxy)-ethoxy]-ethoxy}-ethanol], the IC50 is 27.8 nM in test [1] and above 10200 nM in test [2].

On to `Cc1ccc(-n2cc(C(O)c3c(C4CC4)sc4cncn34)nn2)cc1` (racemic) [Example 4, rac-(2-Cyclopropyl-imidazo[5,1-b]thiazol-3-yl)-(1-p-tolyl-1H-[1,2,3]triazol-4-yl)-methanol], for which the IC50 is 34.5 nM in test [1] and above 10200 nM in test [2].

On to `OCCCOc1ccc(-n2cc([C@H](O)c3c(C4CC4)sc4cncn34)nn2)cc1` [Example 137a, 3-(4-{4-[(R)-(2-Cyclopropyl-imidazo[5,1-b]thiazol-3-yl)-hydroxy-methyl]-[1,2,3]triazol-1-yl}-phenoxy)-propan-1-ol], for which the IC50 in test [1] is 4.09 nM; in test [2], above 10200 nM.

For `Oc1ccc(Cn2cc(C(O)c3c(C4CC4)sc4cncn34)nn2)cc1` (racemic) [Example 304, rac-4-{4-[(2-Cyclopropyl-imidazo[5,1-b]thiazol-3-yl)-hydroxy-methyl]-[1,2,3]triazol-1-ylmethyl}-phenol], the figures for the IC50 in test [1] and in test [2] were 52.2 nM and above 10200 nM, respectively.

Regarding `COc1ccc(-n2cc(C(O)c3c(C(F)(F)F)sc4cncn34)nn2)cc1` (racemic) [Example 134, rac-[1-(4-Methoxy-phenyl)-1H-[1,2,3]triazol-4-yl]-(2-trifluoromethyl-imidazo[5,1-b]thiazol-3-yl)-methanol], the results for the IC50 in test [1] and in test [2] were 11.4 nM and above 10200 nM, respectively.

`Cn1ncc2cccc(-n3cc(C(O)c4c(C5CC5)sc5cncn45)nn3)c21` (racemic) [Example 254, rac-(2-Cyclopropyl-imidazo[5,1-b]thiazol-3-yl)-[1-(1-methyl-1H-indazol-7-yl)-1H-[1,2,3]triazol-4-yl]-methanol]: the IC50 in test [1] is 38.5 nM; in test [2], above 10200 nM.

In the case of `COC(=O)Nc1ccc(-n2cc(C(O)c3c(C4CC4)sc4cncn34)nn2)cc1` (racemic) [Example 36, rac-(4-{4-[(2-Cyclopropyl-imidazo[5,1-b]thiazol-3-yl)-hydroxy-methyl]-[1,2,3]triazol-1-yl}-phenyl)-carbamic Acid Methyl Ester], the IC50 came out at 11.1 nM in test [1] and 8520 nM in test [2].

Regarding `OC(c1cn(-c2ccc(OCC3CCCO3)cc2)nn1)c1c(C2CC2)sc2cncn12` (racemic) [Example 90, rac-(2-Cyclopropyl-imidazo[5,1-b]thiazol-3-yl)-{1-[4-(tetrahydro-furan-2-ylmethoxy)-phenyl]-1H-[1,2,3]triazol-4-yl}-methanol], the IC50 in test [1] is 18.7 nM; in test [2], above 10200 nM.

Turning to `CC(C)C(=O)Nc1ccc(-n2cc(C(O)c3c(C4CC4)sc4cncn34)cn2)cc1` (racemic) [Example 246, rac-N-(4-{4-[(2-Cyclopropyl-imidazo[5,1-b]thiazol-3-yl)-hydroxy-methyl]-pyrazol-1-yl}-phenyl)-isobutyramide], the half-maximal inhibitory concentration (IC50) in test [1] is 29.8 nM; in test [2], 3800 nM.

As for `OC(c1ccc(-c2ccc(C(F)(F)F)cc2)s1)c1c(C2CC2)sc2cncn12` (racemic) [Example 162, rac-(2-Cyclopropyl-imidazo[5,1-b]thiazol-3-yl)-[5-(4-trifluoromethyl-phenyl)-thiophen-2-yl]-methanol], the IC50 in test [1] is 1250 nM; in test [2], above 10200 nM.

Turning to `C=C(C)c1sc2cncn2c1C(O)c1cn(-c2ccc(OCCC(C)(C)O)c(Cl)c2)nn1` (racemic) [Example 293, rac-4-(2-Chloro-4-{4-[hydroxy-(2-isopropenyl-imidazo[5,1-b]thiazol-3-yl)-methyl]-[1,2,3]triazol-1-yl}-phenoxy)-2-methyl-butan-2-ol], the IC50 was 17.6 nM in test [1] and above 10200 nM in test [2].

With `OC(c1cn(-c2ccc3c(c2)OCCO3)nn1)c1c(C2CC2)sc2cncn12` (racemic) [Example 39, rac-(2-Cyclopropyl-imidazo[5,1-b]thiazol-3-yl)-[1-(2,3-dihydro-benzo[1,4]dioxin-6-yl)-1H-[1,2,3]triazol-4-yl]-methanol], the IC50 in test [1] was 21.9 nM; in test [2], above 10200 nM.

On to `CC(C)(O)COc1ccc(-n2cc([C@H](O)c3c(C4CC4)sc4cncn34)nn2)cc1Cl` [Example 283, 1-(2-Chloro-4-{4-[(R)-(2-cyclopropyl-imidazo[5,1-b]thiazol-3-yl)-hydroxy-methyl]-[1,2,3]triazol-1-yl}-phenoxy)-2-methyl-propan-2-ol], for which the IC50 was 7.31 nM in test [1] and above 10200 nM in test [2].

In the case of `COc1ccc(-n2cc(C(O)c3c(C4CC4)sc4cncn34)nn2)cc1` (racemic) [Example 9, rac-(2-Cyclopropyl-imidazo[5,1-b]thiazol-3-yl)-[1-(4-methoxy-phenyl)-1H-[1,2,3]triazol-4-yl]-methanol], the IC50 in test [1] was 8.62 nM; in test [2], above 10200 nM.

As to `Nc1ccc(-n2cc(C(O)c3c(C4CC4)sc4cncn34)nn2)cc1Cl` (racemic) [Example 278, rac-[1-(4-Amino-3-chloro-phenyl)-1H-[1,2,3]triazol-4-yl]-(2-cyclopropyl-imidazo[5,1-b]thiazol-3-yl)-methanol], the IC50 in test [1] was 8.71 nM; in test [2], above 10200 nM.

In the case of `OC(c1cn(-c2ccc(OCCN3CCCCC3)cc2)nn1)c1c(C2CC2)sc2cncn12` (racemic) [Example 89, rac-(2-Cyclopropyl-imidazo[5,1-b]thiazol-3-yl)-{1-[4-(2-piperidin-1-yl-ethoxy)-phenyl]-1H-[1,2,3]triazol-4-yl}-methanol], the IC50 is 204 nM in test [1] and above 10200 nM in test [2].

`COc1ccc(-n2cc(C(O)c3c(C=C(C)C)sc4cncn34)nn2)cc1` (racemic) [Example 262, rac-[1-(4-Methoxy-phenyl)-1H-[1,2,3]triazol-4-yl]-[2-(2-methyl-propenyl)-imidazo[5,1-b]thiazol-3-yl]-methanol]: the IC50 in test [1] was 83.2 nM; in test [2], above 10200 nM.

For the compound `Cn1ccc2cc(-n3cc(C(O)c4c(C5CC5)sc5cncn45)cn3)cnc21` (racemic) [Example 229, rac-(2-Cyclopropyl-imidazo[5,1-b]thiazol-3-yl)-[1-(1-methyl-1H-pyrrolo[2,3-b]pyridin-5-yl)-1H-pyrazol-4-yl]-methanol], the IC50 in test [1] amounted to 43.7 nM; in test [2], 1440 nM.

As for `Oc1ccc(-n2cc(C(O)c3c(C4CC4)sc4cncn34)nn2)c(Cl)c1` (racemic) [Example 212, rac-3-Chloro-4-{4-[(2-cyclopropyl-imidazo[5,1-b]thiazol-3-yl)-hydroxy-methyl]-[1,2,3]triazol-1-yl}-phenol], the IC50 in test [1] was found to be 10.5 nM; in test [2], 6190 nM.

Turning to `O=c1[nH]c2ccc(-n3cc(C(O)c4c(C5CC5)sc5cncn45)nn3)cc2o1` (racemic) [Example 179, rac-6-{4-[(2-Cyclopropyl-imidazo[5,1-b]thiazol-3-yl)-hydroxy-methyl]-[1,2,3]triazol-1-yl}-3H-benzooxazol-2-one], the IC50 in test [1] was 5.36 nM; in test [2], above 10200 nM.

`CCNC(=O)c1ccc(-n2cc(C(O)c3c(CC)sc4cncn34)nn2)cc1` (racemic) [Example 128, rac-N-Ethyl-4-{4-[(2-ethyl-imidazo[5,1-b]thiazol-3-yl)-hydroxy-methyl]-[1,2,3]triazol-1-yl}-benzamide]: the results for the IC50 in test [1] and in test [2] were 16.5 nM and 9780 nM, respectively.

`COc1ccc(-n2nnc(C(O)c3c([C@@H]4C[C@H]4F)sc4cncn34)c2F)cc1` (relative stereo) [Example 335, [2-(trans-2-Fluoro-cyclopropyl)-imidazo[5,1-b]thiazol-3-yl]-[5-fluoro-1-(4-methoxy-phenyl)-1H-[1,2,3]triazol-4-yl]-methanol]: the IC50 is 23 nM in test [1] and above 10200 nM in test [2].

In the case of `OCCOc1ccc(-n2cc(C(O)c3c(C4CC4)sc4cncn34)nn2)cc1` (racemic) [Example 136, rac-2-(4-{4-[(2-Cyclopropyl-imidazo[5,1-b]thiazol-3-yl)-hydroxy-methyl]-[1,2,3]triazol-1-yl}-phenoxy)-ethanol], the IC50 was 10.8 nM in test [1] and above 10200 nM in test [2].
